{
  "source": "patent US10016365B2",
  "about": "“Compositions and methods of tumor treatment utilizing nanoparticles” (priority 2015, dated 2018)",
  "key": {"[1]": {"system": "lung metastases", "experiment": "Lung metastases model (tail vein injection of tumor cells)", "format": "in vivo, SCID mice", "protocol": "(7B) Control of lung metastases. Mouse was induced lung metastases by tail vein injection of tumor cells at d1.\nAnimals were used in compliance with institutional animal health care regulations, and all animal experimental procedures were approved by the Institutional Animal Care and Use Committee. […] Groups of mice were treated. A 2-factor factorial design was implemented with factor 1 (systematic delivery versus regional delivery) and factor 2 (free drug versus nanomedicine). […] The dosing schedule for each paired drugs (free drug and nanomedicine) was given on maximal tolerated dose based on preliminary study. Lung metastases were induced by tail-vein injection, while liver metastases were by splenic injection, and retroperitoneal lymphatic metastases were induced by intra-uterine injection of tumor cells."}, "[2]": {"system": "recurrent ovarian tumor", "details": "HIPEC, 10 mg/kg", "protocol": "Depicted are inflow and outflow ports and anal temperature probe to monitor internal temperature of mouse during perfusion. Mice were perfused for 1 h at the rate of 3 mL/min with Taxol® (10 mg/kg). […] Experiments were repeated in triplicate."}, "[3]": {"system": "human ovarian cancer cell line ES-2", "format": "in vivo", "details": "regional delivery", "source_text": "(§1) Experiments were repeated in triplicate.\nas §1, §1, §1, §1"}, "[4]": {"system": "metastatic non-small lung cancer", "details": "P=0.271; cited from earlier work"}, "[5]": {"system": "CT-26-luc cells", "experiment": "Antitumor activity in colon cancer syngeneic mice model (CT-26-luc i.p., BLI and survival)", "format": "in vivo, BALB/c mice", "method": "Tumor cell growth was determined by measuring bioluminescence images (BLI) using IVIS system. Treatments were initiated when the tumor dissemination (judged by luminescence activity) reached baseline. […] Survival of these animals was recorded.\nFive-week-old female BALB/c mice were purchased from the National Laboratory Animal Breeding and Research Center of Taipei and maintained in the oncology animal facility of Taipei Veterans General Hospital, Taipei, Taiwan. The animals were used in compliance with the institutional animal health care regulations, and all of the animal experimental procedures were approved by the Institutional Animal Care and Use Committee.\nExact dosing volume was calculated using body weight. Control group was given 100 ul of 0.9% Sodium Chloride Injection.\nBALB/c mice (6 weeks) were injected with 1×10^5 CT-26-luc cells in 250 ul opti-MEM by i.p. on Day 0 (D0). After 4 days (D4), tumor cell growth was determined by measuring luminescence activity using IVIS system (baseline). Each group Bioluminescence images (BLI) was normalized by average BLI of total mice before treatment. […] Animals were monitored individually till death for survival evaluation.\nThe mice were imaged with the IVIS-50 system (Xenogen, Alameda, Calif.).\nOverall survival was defined as the time from the date of tumor implantation to the date of death and is presented as the Kaplan-Meier survival curve."}, "[6]": {"system": "cancer stem cells of ES-2 tumors", "experiment": "Cancer stem cell analysis of treated tumors (tumor sphere, side population, RT-PCR)", "format": "in vivo, SCID mice", "method": "(8A) Tumor sphere-forming ability of treated tumor. Mouse was implanted with ES-2 cells (2×10^6/mouse) at day 1 and was treated at day 5, day 8, and day 11 at indicated dosage. Tumors were retrieved at day 14 for each indicated group. Tumors were dissociated into single cell suspension and cultured in an ultralow dish for 10 days. […] Representative figures are shown. (8B) Summary of tumor sphere formation (mean±SD). (8C) Flow cytometry analysis of Hoechst 33342-stained cells and identification of side population cells. Percentage of side population cells are shown. (D-G) RT-PCR analysis for the expressions of stemness marker (8D), genes for epithelial-mesenchymal transition (EMT) driver and expression of epithelial or mesenchymal phenotype (8E), genes for tumor angiogenesis (8F), and genes for multidrug resistance (8G). (8H) CXCR4/CXCL12 axis in stem cells maintenance. […] Experiments were repeated in triplicate."}, "[7]": {"system": "human ovarian cancer cell line ES-2", "experiment": "Flow cytometry apoptosis assay of tumor after treatment", "format": "in vivo, SCID mice", "details": "systematic delivery", "description": "A single intraperitoneal injection of human ovarian cancer cell line ES-2 (2×10^5 cells per mouse, ATCC no. CRL-1978) at d0 into 5-week-old SCID mice (CB.17 scid/scid) was commenced to generate tumor, which was confirmed via abdominal distension and malignant ascites in 3 weeks. […] Animals were used in compliance with institutional animal health care regulations, and all animal experimental procedures were approved by the Institutional Animal Care and Use Committee. Tumor-bearing mice were euthanized at the endpoint when there were signs of distress, including fur ruffling, rapid respiratory rate, hunched posture, reduced activity, and progressive ascites formation. Groups of mice were treated. A 2-factor factorial design was implemented with factor 1 (systematic delivery versus regional delivery) and factor 2 (free drug versus nanomedicine). […] The dosing schedule for each paired drugs (free drug and nanomedicine) was given on maximal tolerated dose based on preliminary study."}, "[8]": {"details": "human, in vivo, ip; cited from earlier work"}, "[9]": {"details": "hepatic artery infusion; cited from earlier work"}},
  "note": "Read-outs that look alike come from different tables or passages of the source.",
  "data": [
    {"smiles": "CC(=O)O[C@H]1C(=O)[C@@]2(C)[C@H]([C@H](OC(=O)c3ccccc3)[C@]3(O)C[C@H](OC(=O)[C@H](O)[C@@H](NC(=O)c4ccccc4)c4ccccc4)C(C)=C1C3(C)C)[C@]1(OC(C)=O)CO[C@@H]1C[C@@H]2O", "note": "[Taxol®, paclitaxel]", "values": [
      {"measurement": "control of lung metastases", "setting": "[1]; regional (intrapleural) delivery", "value": "some therapeutic efficacy"},
      {"measurement": "control of lung metastases", "setting": "[1]; systematic delivery", "value": "unsatisfactory control of tumor"},
      {"measurement": "complications (bowel obstruction or perforation)", "setting": "[2]", "value": "higher"},
      {"measurement": "tumor control of recurrent tumor", "setting": "[2]; perfused 1 h at 3 mL/min", "value": "good tumor control"},
      {"measurement": "therapeutic efficacy (bioluminescence imaging day 14 vs day 4)", "setting": "[3]; 10 mg/kg/mouse, day 5, 8, 11 (FIG. 2B)", "value": "some efficacy"},
      {"measurement": "therapeutic efficacy (bioluminescence imaging day 14 vs day 4)", "setting": "[3]; 10 mg/kg/mouse, day 5, 8, 11 (FIG. 6)", "value": "some efficacy"},
      {"measurement": "median overall survival", "setting": "[4]", "value": 11.2, "unit": "months"},
      {"measurement": "inhibition of colon tumor growth / antitumor activity", "setting": "[5]; 10 mg/kg i.p.", "value": "did not inhibit colon tumor growth"},
      {"measurement": "median survival day", "setting": "[5]; 10 mg/kg i.p.", "value": 26, "unit": "days"},
      {"measurement": "survival duration", "setting": "[5]; 10 mg/kg i.p.", "value": 27, "unit": "days"},
      {"measurement": "inhibition of colon tumor growth", "setting": "[5]; 10 mg/kg i.v.", "value": "did not inhibit colon tumor growth"},
      {"measurement": "median survival day", "setting": "[5]; 10 mg/kg i.v.", "value": 24, "unit": "days"},
      {"measurement": "survival duration", "setting": "[5]; 10 mg/kg i.v.", "value": 27, "unit": "days"},
      {"measurement": "CXCR4/CXCL12 expression compared to control group", "setting": "[6]; i.v. delivery", "value": "increased expression of CXCR4/CXCL12"},
      {"measurement": "side population cells (Hoechst 33342)", "setting": "[6]; regional delivery", "value": "increased"},
      {"measurement": "tumor sphere (microsphere) formation of treated tumor", "setting": "[6]; systematic (i.v.) delivery, tumors retrieved day 14, cultured 10 days", "value": "increased microsphere formation"},
      {"measurement": "side population cells (Hoechst 33342)", "setting": "[6]; systematic delivery", "value": "increased"},
      {"measurement": "apoptosis of tumor", "setting": "[7]", "value": 23.3, "unit": "%"}
    ]},
    {"smiles": "COc1cccc2c1C(=O)c1c(O)c3c(c(O)c1C2=O)C[C@@](O)(C(=O)CO)C[C@@H]3O[C@H]1C[C@H](N)[C@H](O)[C@H](C)O1", "note": "[doxorubicin]", "values": [
      {"measurement": "therapeutic efficacy (bioluminescence imaging day 14 vs day 4)", "setting": "[3]; 5 mg/kg/mouse, day 5 and 10 (FIG. 5)", "value": "some therapeutic effect"}
    ]},
    {"smiles": "N.N.[Cl][Pt][Cl]", "note": "[cisplatin]", "values": [
      {"measurement": "therapeutic efficacy (bioluminescence imaging day 14 vs day 4)", "setting": "[3]; 5 mg/kg/mouse, day 5 and 10 (FIG. 3B)", "value": "some therapeutic effect"},
      {"measurement": "increased exposure to the peritoneal cavity as compared to the systemic compartment", "setting": "[8]", "value": 20, "unit": "fold"}
    ]},
    {"smiles": "CC[C@@]1(O)C(=O)OCc2c1cc1n(c2=O)Cc2cc3c(CN(C)C)c(O)ccc3nc2-1", "note": "[topotecan]", "values": [
      {"measurement": "therapeutic efficacy (bioluminescence imaging day 14 vs day 4)", "setting": "[3]; 10 mg/kg/mouse, day 5 and 10 (FIG. 4B)", "value": "some therapeutic effect"}
    ]},
    {"smiles": "O=c1[nH]c(=O)n([C@H]2C[C@H](O)[C@@H](CO)O2)cc1F", "note": "[floxuridine]", "values": [
      {"measurement": "higher tumor drug levels as compared to portal vein infusion", "setting": "[9]", "value": 15, "unit": "fold"}
    ]}
  ]
}
